Results on 3 compounds are retold here after PMC11232109, “Synthesis, anticancer evaluation of novel hybrid pyrazole-based chalcones, molecular docking, DNA fragmentation, and gene expression: in vitro studies” (RSC Advances, 2024).

As usually defined, the IC50 is the midpoint of a concentration-inhibition curve. Low readings indicate greater potency, high ones weaker potency.

Where two headings read alike, the source gives them in different places. Marks after values point to notes of the source that are not given here.

For data set [1], the system named is MCF7 (human breast adenocarcinoma). In words: MTT assay, MCF7. The class given is cell-based. Conditions: for cytotoxicity at 100 µg/mL / IC50: Homo sapiens; for IC50: 48 hours. The procedure:
(§1) The percentage of the cell viability treated with the newly synthesized compounds was evaluated using MTT assay (3-(4,5-dimethylthiazol-2-yl)-2,5-diphenyl tetrazolium bromide). All the subsequent steps were done in a sterile Laminar flow class II biosafety cabinet (Baker, SG406INT, Sanford, ME, USA). DMEM was used as a suspension medium for breast cancer (MCF7), prostate cancer (PC3), and pancreatic cancer (PACA2), while normal cell line (BJ1) was suspended in DMEM-F12 medium, a 1% antibiotic-antimycotic mixture (10 000 U ml^−1 potassium penicillin, 10 000 μg ml^−1 streptomycin sulfate, and 25 μg ml^−1 amphotericin B), and 1% L-glutamine at 37 °C under 5% CO2.
(§2) Cells were cultured for 10 days and then seeded at a concentration of 10 × 10^4 cells per well in fresh complete growth medium in 96-well microtiter plastic plates at 37 °C for 24 hours under 5% CO2 using a water-jacketed carbon dioxide incubator (Sheldon, TC2323). Media were aspirated, serum-free fresh medium was added, and cells were incubated either alone (negative control) or with different concentrations of the synthesized chalcone derivatives to a final concentration of (100–50–25–12.5–6.25–3.125–0.78 and 1.56 μg ml^−1). After incubation for 48 hours, the medium was aspirated and 40 μl of MTT salt ([…]) was added to each well and incubated for another four hours at 37 °C under 5% CO2. To stop the reaction and dissolve the formed crystals, 200 μl of 10% sodium dodecyl sulfate (SDS) in deionized water was added to each well and incubated overnight at 37 °C.
(§3) The absorbance was then measured at 595 nm and a reference wavelength of 620 nm using a microplate multi-well reader (Bio-Rad Laboratories Inc., model 3350). Statistical significance was tested between the samples and the negative control (cells with vehicle) using an independent t-test using the SPSS 11 program. DMSO was the vehicle used for the dissolution of the synthesized chalcones, and its final concentration on the cells was less than 0.2%. The percentage of change in viability was calculated according to the formula: ((reading of extract/reading of negative control) − 1) × 100. A Probit analysis was carried out for the determination of IC50 using the SPSS 11 program.
For orientation: Tetrazolium dyes change colour on reduction, which living cells bring about.

In data set [2] the test system is PACA2 (pancreatic carcinoma). The experiment in a line: MTT assay, PACA2. Type of data set: cell-based. The note with it: for cytotoxicity at 100 µg/mL / IC50: Homo sapiens; for IC50: 48 hours. The procedure: as §1, §2, §3
The subject of data set [3] is PC3 (prostatic cancer). The experiment in a line: MTT assay, PC3. Type of data set: cell-based. The procedure:
as §1, §2, §3

Data set [4] in a line: MTT assay, normal cell line BJ1. The class given is cell-based. The note with it: human, at 100 μg ml^−1, 48 hours, read-out: (%) Mortality of BJ1. On the procedure: as §1, §2, §3
Data set [5] concerns MCF-7. The experiment in a line: Comet assay (DNA damage), breast cancer cell line. Conditions: for DNA damaged cells% (mean ± SEM): MCF-7, comet assay, −ve 9.63 ± 0.64; for No. of cells, Comets: MCF-7, of 405 cells analyzed; for No. of cells, Class 0 / No. of cells, Class 1 / No. of cells, Class 2 / No. of cells, Class 3: MCF-7, of 405 cells; for No. of cells, Class 0: class 0 = no tail; for No. of cells, Class 1: class 1 = tail length < diameter of nucleus; for No. of cells, Class 2: class 2 = tail length between 1× and 2× the diameter of nucleus; for No. of cells, Class 3: class 3 = tail length > 2× the diameter of nucleus. Type of data set: cell-based, human. On the procedure:
Olive et al. (1990) used pancreatic and breast cancer cell lines to measure the DNA damage using the comet test.[53] Approximately 1.5 × 10^4 cells were imbedded in 0.75% low-gelling-temperature agarose after trypsin treatment to generate a single-cell suspension, which was then quickly pipetted onto a pre-coated microscope slide. Cell samples were lysed in 0.5% SDS, 30 mM EDTA, pH 8.0, for four hours at 50 °C. Samples were electrophoresed for 25 minutes at 0.6 V cm^−1 after being rinsed overnight at room temperature in Tris/borate/EDTA buffer, pH 8.0. Propidium iodide was then added for staining. A fluorescent microscope equipped with a CCD camera was used to observe the slides, and 150 unique comet photos from each sample were examined to determine the tail moment, DNA content, and percentage of DNA in the tail. To find the fraction of cells with DNA damage that resemble comets in each sample, around 100 cells were analyzed. Based on perceived comet tail length migration and relative proportion of DNA in the nucleus, the non-overlapping cells were randomly chosen and visually assigned a score on an arbitrary scale of 0–3. Class 0 = no detectable DNA damage and no tail; class 1 = tail with a length less than the nucleus diameter; class 2 = tail with length between 1× and 2× the nuclear diameter; and class 3 = tail longer than 2× the nucleus diameter.[54]

`Cc1nn(-c2ccccc2)c(C=CC(=O)c2c(-c3cccs3)nn(-c3ccc([N+](=O)[O-])cc3)c2C)c1Cl` [Compound 7d, 3-(4-Chloro-3-methyl-1-phenyl-1H-pyrazol-5-yl)-1-(5-methyl-1-(4-nitrophenyl)-3-(thiophen-2-yl)-1H-pyrazol-4-yl)prop-2-en-1-one]: the cytotoxicity at 100 µg/mL in data set [1] (MCF7, 48 h, at 100 μg ml^−1, 48 hours, MTT, read-out: (%) Mortality of MCF7) was in the range of 70 to 80%; in data set [2] (PaCa-2, 48 h, at 100 μg ml^−1, 48 hours, MTT, read-out: (%) Mortality of PACA2) it was 70 to 80%; in data set [3] (Homo sapiens, 48 h, at 100 μg ml^−1, 48 hours, MTT, read-out: (%) Mortality of PC3), 70 to 80%. Also, the IC50 in data set [1] (MCF7, MTT) was 42.6 ± 0.71 µM; in data set [2] (PaCa-2, MTT) it was 51.9 ± 0.29 µM; in data set [3] (Homo sapiens, MTT, 48 hours) it was 66.9 ± 0.98 µM. The cytotoxicity in data set [1] (at 100 μg ml^−1, 48 hours, MTT, read-out: (%) Mortality of MCF7) was 71.2 ± 0.14%; in data set [2] (at 100 μg ml^−1, 48 hours, MTT, read-out: (%) Mortality of PACA2), 80.3 ± 19%; in data set [3] (at 100 μg ml^−1, 48 hours, MTT, read-out: (%) Mortality of PC3), 70.6 ± 0.97%. For the same compound, the cytotoxicity at 48 h, 100 μg ml^−1 in data set [4] (BJ1 normal skin fibroblasts) is 12.3 ± 0.23%. Further, the “DNA damaged cells% (mean ± SEM)” value in data set [5] was 25.93 ± 1.08^a %. Moreover, in data set [5], the “No. of cells, Comets” value was determined as 105. Also, the “No. of cells, Class 0” value in data set [5] was found to be 300. In addition, the “No. of cells, Class 1” value in data set [5] amounted to 30. Moreover, in data set [5], the “No. of cells, Class 2” value was 41. Moreover, the “No. of cells, Class 3” value in data set [5] is given as 34.

For the compound `Cc1c(C(=O)C=Cc2nn(-c3ccccc3)cc2-c2ccc([N+](=O)[O-])cc2)c(-c2cccs2)nn1-c1ccc([N+](=O)[O-])cc1` [Compound 9e, 1-(5-Methyl-1-(4-nitrophenyl)-3-(thiophen-2-yl)-1H-pyrazol-4-yl)-3-(4-(4-nitrophenyl)-1-phenyl-1H-pyrazol-3-yl)prop-2-en-1-one], the cytotoxicity at 100 µg/mL in data set [1] (MCF7, 48 h, read-out: (%) Mortality of MCF7) was determined as 14.2 ± 0.37%; in data set [2] (PaCa-2, 48 h, read-out: (%) Mortality of PACA2), 100%; in data set [3] (Homo sapiens, 48 h, read-out: (%) Mortality of PC3), 5.3 ± 0.94%. Also, the half-inhibitory concentration (IC50) in data set [1] (MCF7, MTT) was 59.3 ± 0.85 µM; in data set [2] (PaCa-2, MTT), 27.6 ± 0.33 µM. In addition, the cytotoxicity at 48 h, 100 μg ml^−1 in data set [4] worked out at 5.6 ± 0.55%.

Compound `COc1cccc2c1C(=O)c1c(O)c3c(c(O)c1C2=O)C[C@@](O)(C(=O)CO)C[C@@H]3O[C@H]1C[C@H](N)[C@H](O)[C@H](C)O1` [Doxorubicin, reference compound] had a 50% inhibitory concentration (IC50) in data set [1] (MCF7, MTT) of 48 ± 0.74 µM. Besides, the cytotoxicity at 100 µg/mL in data set [1] (MCF7, at 100 μg ml^−1, 48 hours, MTT, read-out: (%) Mortality of MCF7) was 100%. In addition, in data set [2] (PaCa-2, at 100 μg ml^−1, 48 hours, MTT, read-out: (%) Mortality of PACA2), the cytotoxicity at 100 µg/mL was 100%. For the same compound, the cytotoxicity at 100 µg/mL in data set [3] (Homo sapiens, at 100 μg ml^−1, 48 hours, MTT, read-out: (%) Mortality of PC3) was found to be 100%. In data set [4] (BJ1 normal skin fibroblasts), the cytotoxicity at 48 h, 100 μg ml^−1 came out at 100%. Moreover, the “DNA damaged cells% (mean ± SEM)” value in data set [5] (listed as Dox) is listed as 21.98 ± 0.91^b %. In addition, in data set [5], the “No. of cells, Comets” value amounted to 89; the “No. of cells, Class 0” value stood at 316; the “No. of cells, Class 1” value was determined as 27; the “No. of cells, Class 2” value came to 33. Moreover, the “No. of cells, Class 3” value in data set [5] was determined as 29.
